Data published in PMC8286840, “Identifying SARS-CoV-2 antiviral compounds by screening for small molecule inhibitors of Nsp3 papain-like protease” (Biochemical Journal, 2021).
Counter-ions that a name gives are not always drawn. Like-named read-outs stand apart in the source and are kept apart here.

Assays:
[1] = molecular target: T1, SARS-CoV-2 PLpro (nsp3 1564–1878) (Severe acute respiratory syndrome coronavirus 2, UniProt P0DTD1); assay: biochemical; set-up: FRET-quenched peptide (Pro3) cleavage by PLpro, 10 min pre-incubation, slope over 20 min, normalised to no-compound control; details: low concentration screen, read-out: % of control remaining
[2] = molecular target: T1, SARS-CoV-2 PLpro (nsp3 1564–1878); assay: biochemical; set-up: FRET-quenched peptide (Pro3) cleavage by PLpro, 10 min pre-incubation, slope over 20 min, normalised to no-compound control; details: high concentration screen, read-out: % of control remaining

## CC(C)=CCC[C@](C)(O)[C@H]1CC[C@]2(C)[C@@H]1[C@H](O)C[C@@H]1[C@@]3(C)CC[C@H](O)C(C)(C)[C@@H]3[C@@H](O)C[C@]12C [(20S)-Protopanaxatriol]
[1]; Well no.=8387
  remaining activity at 1.25 µM: 96.6%
[2]; Well no.=8387
  remaining activity at 3.75 µM: 91.4%

## CC(C)Cc1ccc(C(C)C(=O)NO)cc1 (stereo not drawn) [Ibuproxam]
[1]; Well no.=4091
  remaining activity at 1.25 µM: 95%
[2]; Well no.=4091
  remaining activity at 3.75 µM: 94.9%

## COc1ccc(CCN(C)CCCC(C#N)(c2cc(OC)c(OC)c(OC)c2)C(C)C)cc1OC (racemic)
[1]; Well no.=1026
  remaining activity at 1.25 µM: 94.4%
[2]; Well no.=1026
  remaining activity at 3.75 µM: 98.1%

## CCNC(=O)CC[C@H](N)C(=O)O [L-Theanine]
[1]; Well no.=3522
  remaining activity at 1.25 µM: 97.3%
[2]; Well no.=3522
  remaining activity at 3.75 µM: 99%

## CC[N+](C)(C)Cc1ccccc1Br [Bretylium tosylate]
[1]; Well no.=321
  remaining activity at 1.25 µM: 103%
[2]; Well no.=321
  remaining activity at 3.75 µM: 101%

## O=C(NCCO[N+](=O)[O-])c1cccnc1 [Nicorandil]
[1]; Well no.=1812
  remaining activity at 1.25 µM: 99%
[2]; Well no.=1812
  remaining activity at 3.75 µM: 95.8%

## O=C(O)C1CCCN(CCC=C(c2ccccc2)c2ccccc2)C1 (stereo not drawn) [SKF 89976A hydrochloride]
[1]; Well no.=1323
  remaining activity at 1.25 µM: 99.7%
[2]; Well no.=1323
  remaining activity at 3.75 µM: 102%

## Cc1c(F)cccc1NC(=O)Nc1ccc(Cl)c(S(=O)(=O)[C@H]2CCCNC2)c1O [Danirixin]
[1]; Well no.=8173
  remaining activity at 1.25 µM: 111%
[2]; Well no.=8173
  remaining activity at 3.75 µM: 103%

## CCC(=O)c1cc(-c2ccc(Cl)cc2)n(-c2ccc(S(N)(=O)=O)cc2)c1C [A-867744]
[1]; Well no.=8320
  remaining activity at 1.25 µM: 96.8%
[2]; Well no.=8320
  remaining activity at 3.75 µM: 94%

## N#Cc1cnc2cnc(NCc3cccnc3)cc2c1Nc1ccc(F)c(Cl)c1 [Tpl2 Kinase Inhibitor]
[1]; Well no.=2662
  remaining activity at 1.25 µM: 92.4%
[2]; Well no.=2662
  remaining activity at 3.75 µM: 89.7%

## COc1cnc(NS(=O)(=O)c2ccc(N)cc2)nc1 [Sulfameter]
[1]; Well no.=7406
  remaining activity at 1.25 µM: 98.3%
[1]; Well no.=8236
  remaining activity at 1.25 µM: 91.9%
[2]; Well no.=7406
  remaining activity at 3.75 µM: 100%
[2]; Well no.=8236
  remaining activity at 3.75 µM: 88.3%

## COc1nccc(-c2c(-c3ccc(F)cc3)ncn2C2CCNCC2)n1 [SB242235]
[1]; Well no.=2701
  remaining activity at 1.25 µM: 105%
[2]; Well no.=2701
  remaining activity at 3.75 µM: 105%

## C=CCc1cc(OC)c(O)c(C(=O)NCCO)c1 [Alibendol]
[1]; Well no.=5002
  remaining activity at 1.25 µM: 101%
[2]; Well no.=5002
  remaining activity at 3.75 µM: 94.9%

## COc1ccc(C(=O)NCc2cccnc2)cc1C(=O)NCc1cccnc1 [Picotamide]
[1]; Well no.=1351
  remaining activity at 1.25 µM: 102%
[1]; Well no.=2202
  remaining activity at 1.25 µM: 88.9%
[2]; Well no.=1351
  remaining activity at 3.75 µM: 102%
[2]; Well no.=2202
  remaining activity at 3.75 µM: 90.3%

## CC(CN(C)C)CN1c2ccccc2CCc2ccccc21 (stereo not drawn) [Trimipramine (maleate)]
[1]; Well no.=6715
  remaining activity at 1.25 µM: 106%
[2]; Well no.=6715
  remaining activity at 3.75 µM: 100%

## CN(C)CCCN1c2ccccc2Sc2ccc(Cl)cc21 [Chlorpromazine (hydrochloride)]
[1]; Well no.=6227
  remaining activity at 1.25 µM: 95.8%
[2]; Well no.=6227
  remaining activity at 3.75 µM: 96.3%

## CC#C[C@]1(O)CC[C@H]2[C@@H]3CCC4=CC(=O)CCC4=C3[C@@H](c3ccc(N(C)C)cc3)C[C@@]21C [Mifepristone]
[1]; Well no.=795
  remaining activity at 1.25 µM: 103%
[1]; Well no.=2206
  remaining activity at 1.25 µM: 93.5%
[1]; Well no.=6285
  remaining activity at 1.25 µM: 97.9%
[2]; Well no.=795
  remaining activity at 3.75 µM: 96.3%
[2]; Well no.=2206
  remaining activity at 3.75 µM: 97.2%
[2]; Well no.=6285
  remaining activity at 3.75 µM: 99.7%

## NCCCNCCSP(=O)(O)O [Amifostine]
[1]; Well no.=115
  remaining activity at 1.25 µM: 103%
[1]; Well no.=2115
  remaining activity at 1.25 µM: 99.3%
[2]; Well no.=115
  remaining activity at 3.75 µM: 104%
[2]; Well no.=2115
  remaining activity at 3.75 µM: 102%

## COc1ccc(CCN(C)CCCC(C#N)(c2ccc(OC)c(OC)c2)C(C)C)cc1OC (stereo not drawn) [Verapamil]
[1]; Well no.=1721
  remaining activity at 1.25 µM: 100%
[2]; Well no.=1721
  remaining activity at 3.75 µM: 100%

## COc1ccc(/C=C\c2cc(OC)c(OC)c(OC)c2)cc1OP(=O)(O)O [Fosbretabulin disodium]
[1]; Well no.=5660
  remaining activity at 1.25 µM: 95.9%
[2]; Well no.=5660
  remaining activity at 3.75 µM: 90.4%

## CC(C)[C@@H](C)/C=C/[C@@H](C)[C@H]1CC[C@H]2C3=CC=C4C[C@@H](O)CC[C@]4(C)[C@H]3CC[C@]12C [Ergosterol]
[1]; Well no.=5194
  remaining activity at 1.25 µM: 102%
[2]; Well no.=5194
  remaining activity at 3.75 µM: 101%

## Cc1ccc(-c2c(-c3nn(C)c4ncnc(N5CC[C@H](N6CCCCC6)C5)c34)cnn2C)cc1 [PF-4981517]
[1]; Well no.=4875
  remaining activity at 1.25 µM: 99.5%
[2]; Well no.=4875
  remaining activity at 3.75 µM: 93.8%

## C=CC(=O)Nc1cccc(Sc2nc(Nc3ccc(N4CCN(C)CC4)cc3)ncc2Cl)c1 [WZ8040]
[1]; Well no.=4717
  remaining activity at 1.25 µM: 107%
[2]; Well no.=4717
  remaining activity at 3.75 µM: 107%

## O=C(O)/C=C\C(=O)O [Maleic Acid]
[1]; Well no.=6593
  remaining activity at 1.25 µM: 100%
[2]; Well no.=6593
  remaining activity at 3.75 µM: 101%

## O=C(O)CCCC/C=C\C[C@@H](O)/C=C/C=C/C=C\[C@@H](O)CCCC(=O)O [20-Carboxy-leukotriene B4]
[1]; Well no.=4427
  remaining activity at 1.25 µM: 94.3%
[2]; Well no.=4427
  remaining activity at 3.75 µM: 98.4%

## NCCNC(=O)c1ccc(Cl)cc1 [Ro 16-6491 hydrochloride]
[1]; Well no.=1448
  remaining activity at 1.25 µM: 94.7%
[2]; Well no.=1448
  remaining activity at 3.75 µM: 92.5%

## CC1=C(O)C(=O)[C@@H]2O[C@@H]2C1=O [(-)-Terreic acid - (1R,6S)-3-Hydroxy-4-methyl-7-oxabicyclo[4.1.0]hept-3-ene-2,5-dione]
[1]; Well no.=2398
  remaining activity at 1.25 µM: 99.2%
[2]; Well no.=2398
  remaining activity at 3.75 µM: 104%

## CC(=O)[C@H]1CC[C@H]2[C@@H]3CCC4=CC(=O)CC[C@]4(C)[C@H]3CC[C@]12C [Progesterone]
[1]; Well no.=852
  remaining activity at 1.25 µM: 106%
[1]; Well no.=2143
  remaining activity at 1.25 µM: 95.2%
[1]; Well no.=7071
  remaining activity at 1.25 µM: 105%
[2]; Well no.=852
  remaining activity at 3.75 µM: 107%
[2]; Well no.=2143
  remaining activity at 3.75 µM: 101%
[2]; Well no.=7071
  remaining activity at 3.75 µM: 104%

## CCNC(=O)c1noc(-c2cc(Cl)c(O)cc2O)c1-c1ccc(OC)cc1 [VER-50589]
[1]; Well no.=8670
  remaining activity at 1.25 µM: 95.3%
[2]; Well no.=8670
  remaining activity at 3.75 µM: 97.5%

## O=C(O)C1CCCCN1 (stereo not drawn) [Pipecolic acid]
[1]; Well no.=6929
  remaining activity at 1.25 µM: 103%
[2]; Well no.=6929
  remaining activity at 3.75 µM: 102%

## CC(C)=CCC[C@](C)(O)[C@H]1CC[C@]2(C)[C@@H]1CC[C@@H]1[C@@]3(C)CCC(=O)C(C)(C)[C@@H]3CC[C@]12C [Dipterocarpol]
[1]; Well no.=3204
  remaining activity at 1.25 µM: 105%
[2]; Well no.=3204
  remaining activity at 3.75 µM: 106%

## COc1ccccc1N1CCN(CCN(C(=O)C2CCCCC2)c2ccccn2)CC1 [WAY-100635 (maleate salt)]
[1]; Well no.=7000
  remaining activity at 1.25 µM: 99.7%
[2]; Well no.=7000
  remaining activity at 3.75 µM: 99.5%
